The results in this text go back to patent publication US20240148821A1, “PHARMACEUTICAL USE OF CYCLIC PEPTIDE COMPOUND” (CHUGAI SEIYAKU KABUSHIKI KAISHA, priority 2021, published 2024).

Numbered stars: 1 amine (or outer) side, 2 acyl side, 3 side chain; on linkers, the order of the positions; unused ones are H or OH. Bridge positions count the residues as written; N and C are the ends. Square brackets hold non-standard residues; d marks the D form. Peptide text beside a SMILES is read from it. * marks the point of attachment. hPhe(3-Cl-4-CF3) = N[C@@H](CCc1ccc(C(F)(F)F)c(Cl)c1)C(=O)O; hPhe(3-F,4-CF3) = N[C@@H](CCc1ccc(C(F)(F)F)c(F)c1)C(=O)O; NMePhe(4-CF3) = CN[C@@H](Cc1ccc(C(F)(F)F)cc1)C(=O)O; X37 = CC(C)(C)NC(=O)COC[C@H](CC(=O)[*:1])N[*:2]; NMeAla(4-thiazolyl) = CN[C@@H](Cc1cscn1)C(=O)O; 3Oxa8azabicyclo(3.2.1)octane = C1CC2COCC1N2*; NMeAbu(4,4,4-F3) = CN[C@@H](CC(F)(F)F)C(=O)O; NMePhe(4-Me) = CN[C@@H](Cc1ccc(C)cc1)C(=O)O; NMeGly(cPent) = CN[C@H](C(=O)O)C1CCCC1; Pro(4,4-F2) = O=C(O)[C@@H]1CC(F)(F)CN1; NMeAla(cPr) = CN[C@@H](CC1CC1)C(=O)O; NMe4Pal = CN[C@@H](Cc1ccncc1)C(=O)O; NMeGly(cBu) = CN[C@H](C(=O)O)C1CCC1; NMeCha = CN[C@@H](CC1CCCCC1)C(=O)O; Hyp = O=C(O)[C@@H]1C[C@@H](O)CN1; NMeChg = CN[C@H](C(=O)O)C1CCCCC1; NMeI = CC[C@H](C)[C@H](NC)C(=O)O; NMeD = CN[C@@H](CC(=O)O)C(=O)O; CH2CONHtBu = CC(C)(C)NC(=O)C*; NMeL = CN[C@@H](CC(C)C)C(=O)O; NMeV = CN[C@H](C(=O)O)C(C)C; d(β3hA) = C[C@@H](N)CC(=O)O; NMeS = CN[C@@H](CO)C(=O)O; Morpholide = C1CN(*)CCO1; NMeA = CN[C@@H](C)C(=O)O; Piperidide = C1CCN(*)CC1; Pyrrolidide = C1CCN(*)C1; Ac5c = NC1(C(=O)O)CCCC1; Aze = O=C(O)[C@@H]1CCN1; Sar = CNCC(=O)O A value given as a limit tells only on which side of the number the result lay.

This assay concerns Human pancreatic cancer cell line AsPC-1 (G12D mutation Kras). Briefly: AsPC-1 cell growth inhibition (AsPC-1 CGI). Format: cell-based. The conditions noted are these: read-out: AsPC-1 cell growth inhibition, 50% growth inhibitory concentration (IC50 value); 96 hours, CellTiter-Glo, values classified in ranges. On the technique in general: ATP-based viability assays read luminescence as a measure of living cells.
Experimental: Test compounds were serially dilated with dimethyl sulfoxide, and 200 nL was then dispensed to a U-bottom 96-well plate using Labcyte Echo. […] The cell suspension was dispensed to a. plate containing a test compound at 100 μL per well and incubated at 37° C. in a 5% carbon dioxide gas incubator. 96 hours later, 80 μL of CellTiter-Glo (Promega) was added to each well and fluorescence was measured.
For `CC[C@H](C)[C@@H]1NC(=O)[C@H](CC(C)C)N(C)C(=O)C[C@@H](C(=O)N(C)C)N(C)C(=O)[C@H]([C@@H](C)CC)N(C)C(=O)[C@H](C)NC(=O)[C@H](Cc2cscn2)N(C)C(=O)[C@H](CCc2ccc(C(F)(F)F)c(Cl)c2)NC(=O)CN(C)C(=O)[C@H](Cc2ccc(C)cc2)N(C)C(=O)[C@@H]2CCN2C(=O)[C@H](C)N(C)C1=O` [Compound 856] ([NMeL]I[NMeA][Aze][NMePhe(4-Me)][Sar][hPhe(3-Cl-4-CF3)][NMeAla(4-thiazolyl)]A[NMeI][NMeD]-NMe2; lactam N-11), the IC50 was above 500 nM.

Regarding `CC[C@H](C)[C@@H]1NC(=O)[C@H](CC(F)(F)F)N(C)C(=O)C[C@@H](C(=O)N2CCCC2)N(C)C(=O)[C@H](C2CCCCC2)N(C)C(=O)C2(CCCC2)NC(=O)[C@@H]2CC(F)(F)CN2C(=O)[C@H](CCc2ccc(C(F)(F)F)c(Cl)c2)NC(=O)CN(C)C(=O)[C@H](CC2CCCCC2)N(C)C(=O)CN(C)C(=O)CN(C)C1=O` [Compound 1357] ([NMeAbu(4,4,4-F3)]I[Sar][Sar][NMeCha][Sar][hPhe(3-Cl-4-CF3)][Pro(4,4-F2)][Ac5c][NMeChg][NMeD]-Pyrrolidide; lactam N-11), the IC50 is at most 20 nM.

On to `CC[C@H](C)[C@@H]1NC(=O)[C@H](CC(C)C)N(C)C(=O)C[C@@H](C(=O)N2C3CCC2COC3)N(C)C(=O)[C@H](C2CCCC2)N(C)C(=O)C2(CCCC2)NC(=O)[C@@H]2CCCN2C(=O)[C@H](CCc2ccc(C(F)(F)F)c(F)c2)NC(=O)CN(C)C(=O)[C@H](CC2CCCCC2)N(C)C(=O)[C@@H]2CCN2C(=O)[C@H](C)N(C)C1=O` [Compound 734] ([NMeL]I[NMeA][Aze][NMeCha][Sar][hPhe(3-F,4-CF3)]P[Ac5c][NMeGly(cPent)][NMeD]-{3Oxa8azabicyclo(3.2.1)octane}; lactam N-11), for which the IC50 is at most 20 nM.

In the case of `CC[C@H](C)[C@@H]1NC(=O)[C@H](CC(C)C)N(C)C(=O)C[C@@H](COCC(=O)NC(C)(C)C)NC(=O)[C@H](C(C)C)N(C)C(=O)C2(CCCC2)NC(=O)[C@@H]2CCCN2C(=O)[C@H](CCc2ccc(C(F)(F)F)c(Cl)c2)NC(=O)CN(C)C(=O)[C@H](CC2CCCCC2)N(C)C(=O)CN(C)C(=O)CN(C)C1=O` [Compound 955] ([NMeL]I[Sar][Sar][NMeCha][Sar][hPhe(3-Cl-4-CF3)]P[Ac5c][NMeV]; linker N-C via X37), the IC50 was above 500 nM.

As to `CC[C@H](C)[C@@H]1NC(=O)[C@H](CC(C)C)N(C)C(=O)C[C@@H](C(=O)N(C)C)N(C)C(=O)[C@H](C2CCCC2)N(C)C(=O)[C@H](C(C)C)NC(=O)[C@H](Cc2ccncc2)N(C)C(=O)[C@H](CCc2ccc(C(F)(F)F)c(Cl)c2)NC(=O)CN(C)C(=O)[C@H](CC2CCCCC2)N(C)C(=O)[C@@H]2CCN2C(=O)[C@H](C)N(C)C1=O` [Compound 1982] ([NMeL]I[NMeA][Aze][NMeCha][Sar][hPhe(3-Cl-4-CF3)][NMe4Pal]V[NMeGly(cPent)][NMeD]-NMe2; lactam N-11), the IC50 was above 500 nM.

Turning to `CC[C@H](C)[C@@H]1NC(=O)[C@H](CC(C)C)N(C)C(=O)C[C@@H](C)NC(=O)[C@H](C(C)C)N(C)C(=O)C2(CCCC2)NC(=O)[C@@H]2CCCN2C(=O)[C@H](CCc2ccc(C(F)(F)F)c(Cl)c2)NC(=O)CN(C)C(=O)[C@H](CC2CC2)N(C)C(=O)CN(C)C(=O)CN(C)C1=O` [Compound 511] (cyclo([Ac5c][NMeV][d(β3hA)][NMeL]I[Sar][Sar][NMeAla(cPr)][Sar][hPhe(3-Cl-4-CF3)]P)), the IC50 is above 500 nM.

Regarding `CC[C@H](C)[C@@H]1NC(=O)[C@H](CC(C)C)N(C)C(=O)C[C@@H](C(=O)N2CCCCC2)N(C)C(=O)[C@H](C2CCCCC2)N(C)C(=O)C2(CCCC2)NC(=O)[C@@H]2CCCN2C(=O)[C@H](CCc2ccc(C(F)(F)F)c(Cl)c2)NC(=O)CN(C)C(=O)[C@H](C2CCC2)N(C)C(=O)CN(C)C(=O)CN(C)C1=O` [Compound 936] ([NMeL]I[Sar][Sar][NMeGly(cBu)][Sar][hPhe(3-Cl-4-CF3)]P[Ac5c][NMeChg][NMeD]-Piperidide; lactam N-11), the IC50 is above 500 nM.

For the compound `CCO[C@@H]1C[C@H]2C(=O)NC3(CCCC3)C(=O)N(C)[C@@H]([C@@H](C)CC)C(=O)N(C)[C@H](C(=O)N3CCOCC3)CC(=O)N(C)[C@@H](CC(C)C)C(=O)N[C@@H]([C@@H](C)CC)C(=O)N(C)[C@@H](C)C(=O)N3CC[C@H]3C(=O)N(C)[C@@H](Cc3ccc(C(F)(F)F)cc3)C(=O)N(C)CC(=O)N[C@@H](CCc3ccc(C(F)(F)F)c(Cl)c3)C(=O)N2C1` [Compound 1330] ([NMeL]I[NMeA][Aze][NMePhe(4-CF3)][Sar][hPhe(3-Cl-4-CF3)][Hyp](Et)[Ac5c][NMeI][NMeD]-Morpholide; lactam N-11), the IC50 was at most 20 nM.

Take `CC[C@H](C)[C@@H]1NC(=O)[C@H](CC(C)C)N(C)C(=O)C[C@@H](C(=O)N2CCCCC2)N(C)C(=O)[C@H](C(C)C)N(C)C(=O)C2(CCCC2)NC(=O)[C@@H]2CCCN2C(=O)[C@H](CCc2ccc(C(F)(F)F)c(Cl)c2)NC(=O)CN(C)C(=O)[C@H](CC2CCCCC2)N(C)C(=O)[C@@H]2CCN2C(=O)[C@H](COCC(=O)NC(C)(C)C)N(C)C1=O` [Compound 998] ([NMeL]I[NMeS](CH2CONHtBu)[Aze][NMeCha][Sar][hPhe(3-Cl-4-CF3)]P[Ac5c][NMeV][NMeD]-Piperidide; lactam N-11): the IC50 is above 500 nM.
